The record followed here is PMC4763718 (MedChemComm, 2015).

For the first assay, the system named is J6/JFH(p7-Rluc2A) HCV.
Experiment: not given
The format is cell-based, hepatitis C virus.
Take `CC(C)Oc1snc2cc(-c3ccsc3)cnc12` [Compound 8j]: the “effect on HCV replication (in words)” value is “minimal to no effect”.

For the next assay, the target named is T1, cyclin G associated kinase (GAK) (Homo sapiens, UniProt O14976).
T1 sequence (O14976 1-1311): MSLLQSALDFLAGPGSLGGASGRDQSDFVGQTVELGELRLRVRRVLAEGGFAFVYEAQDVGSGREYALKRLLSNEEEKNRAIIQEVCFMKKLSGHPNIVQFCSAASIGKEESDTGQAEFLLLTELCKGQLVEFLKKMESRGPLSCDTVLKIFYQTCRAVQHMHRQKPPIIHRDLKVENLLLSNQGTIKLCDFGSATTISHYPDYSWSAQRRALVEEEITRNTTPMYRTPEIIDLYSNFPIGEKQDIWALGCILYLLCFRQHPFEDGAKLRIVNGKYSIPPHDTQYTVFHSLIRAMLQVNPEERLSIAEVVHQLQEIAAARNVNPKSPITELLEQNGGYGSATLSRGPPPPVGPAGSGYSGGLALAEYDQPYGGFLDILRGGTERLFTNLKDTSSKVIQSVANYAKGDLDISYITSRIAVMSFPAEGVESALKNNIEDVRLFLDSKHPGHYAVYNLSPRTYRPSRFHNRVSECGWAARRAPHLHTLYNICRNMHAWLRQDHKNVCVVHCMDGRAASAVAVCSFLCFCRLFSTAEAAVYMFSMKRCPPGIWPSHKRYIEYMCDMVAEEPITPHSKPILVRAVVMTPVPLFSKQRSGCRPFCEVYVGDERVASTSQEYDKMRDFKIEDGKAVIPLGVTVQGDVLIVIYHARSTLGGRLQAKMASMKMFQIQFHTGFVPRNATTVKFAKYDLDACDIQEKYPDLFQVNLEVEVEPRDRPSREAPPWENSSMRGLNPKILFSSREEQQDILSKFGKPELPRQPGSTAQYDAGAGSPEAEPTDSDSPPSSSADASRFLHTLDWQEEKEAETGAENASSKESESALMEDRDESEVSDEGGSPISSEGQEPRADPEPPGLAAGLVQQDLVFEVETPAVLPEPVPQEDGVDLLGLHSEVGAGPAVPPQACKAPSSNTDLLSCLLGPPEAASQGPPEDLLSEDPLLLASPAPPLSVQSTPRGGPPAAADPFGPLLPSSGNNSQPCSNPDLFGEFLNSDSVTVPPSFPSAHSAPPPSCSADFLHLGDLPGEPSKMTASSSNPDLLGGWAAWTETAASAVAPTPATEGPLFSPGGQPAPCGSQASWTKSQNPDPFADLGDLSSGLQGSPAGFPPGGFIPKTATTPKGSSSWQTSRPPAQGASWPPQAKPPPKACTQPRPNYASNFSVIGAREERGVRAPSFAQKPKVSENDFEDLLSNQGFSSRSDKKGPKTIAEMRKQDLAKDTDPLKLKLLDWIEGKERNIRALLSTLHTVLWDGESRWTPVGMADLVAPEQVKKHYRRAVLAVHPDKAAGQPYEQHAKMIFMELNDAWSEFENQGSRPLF
Nature of the assay: KINOMEscan competition binding assay.
Consider `COc1ccc(-c2cnc3c(NC(=O)C4CC=CC4)snc3c2)cc1OC` [Compound 5g], for which the “GAK affinity (in words)” value was “reduced the affinity to GAK”.
Same read-out and setting: the entry for `COc1ccc(-c2cnc3c(NC(=O)C4CCCCCC4)snc3c2)cc1OC` [Compound 5h] is “reduced the affinity to GAK”.
For the compound `COc1ccc(-c2cnc3c(NC(=O)C4CCOCC4)snc3c2)cc1OC` [Compound 5i], the “GAK affinity (in words)” value was “reduced the affinity to GAK”.
Same read-out and setting: the entry for `CCCCCOc1snc2cc(-c3ccc(OC)c(OC)c3)cnc12` [Compound 8e] is “completely abolished GAK affinity”.
The same measure, in the same setting: as for `COc1ccc(-c2cnc3c(N4CCN(C(C)C)CC4)snc3c2)cc1OC` [Compound 8l], the entry is “did not lead to any improvement in GAK affinity”; as for `CCCCN1CCN(c2snc3cc(-c4ccc(OC)c(OC)c4)cnc23)CC1` [Compound 8m], “did not lead to any improvement in GAK affinity”.
The same measure, in the same setting: the entry for `COc1ccc(-c2cnc3c(N4CCN(c5ccncc5)CC4)snc3c2)cc1OC` [Compound 8n] is “did not lead to any improvement in GAK affinity”; for `COc1ccc(-c2cnc3c(N4CCN(C(=O)c5ccccc5)CC4)snc3c2)cc1OC` [Compound 8q] it is “inactive”.
